According to patent US20120076762A1, “INDUCED PLURIPOTENT STEM CELL GENERATION USING TWO FACTORS AND P53 INACTIVATION” (THE SALK INSTITUTE FOR BIOLOGICAL STUDIES, priority 2009, published 2012):
Marks after values point to notes of the source that are not given here.

What was measured:
[1] = test system: Mouse embryonic fibroblasts (MEFs); experiment: Reprogramming of mouse embryonic fibroblasts to iPS cells (Nanog-positive colonies); type: cell-based; settings: for Effect on reprogramming / Fold increase in reprogramming / Nanog-positive colony formation vs control: 3-F; for Direction and grade of change in reprogramming efficiency (arrows) / Reprogramming efficiency (Nanog-positive colonies / infected cells) / Fold increase in reprogramming / Nanog-positive colony formation vs control: MEFs
Text: (§1) VSV-G viruses were produced in HEK293T cells. For pMX-based and pMSCV-based retroviruses, vectors were transfected using CaPO4 or lipofectamin, following the manufacturers' directions. One day after transfection, culture medium was changed to new medium. For lentivirus, pBOBI-based^34 or pLVTHM-based^37 vectors were transfected by Lipofectamine™ 2000 (Invitrogen) according to the manufacturer's protocol. Six hours after transfection, the DNA-lipofectamine-complex was removed and the medium was replaced the next day. Two days after transfection, the supernatant containing viruses was collected and filtered through a 0.45 μm filter. Mouse iPS cells were induced as previously described^38,39. Briefly, mouse embryonic fibroblasts (passage 3 to 5) were infected (day 0) with pMX-based retroviruses together with pLVTHM-based lentivirus for shRNAs or pBOBI-based lentivirus for Bcl-2. On day 2, cells were passed onto new gelatin-coated plates. Medium was changed every 2 days. On day 12 to 14, cells were fixed for immunofluorescence study. For the Nutlin3a experiments, cells were treated starting from day 4. Reprogramming of human embryonic fibroblasts (IMR90) was done as previously described^2′^3. Briefly, IMR90 fibroblasts (passage 7 to 9) were infected (day 0) with pMSCV-based retroviruses+pLVTHM-based lentiviruses for p53 shRNA. On day 4 or 5, cells were passed onto feeder MEFs. Medium was changed every day. Around 3 weeks after infection, cells were fixed for immunofluorescence studies. Reprogramming of human primary keratinocytes was carried out essentially as described^6. Cells were co-infected with retroviral supernatants containing 3 or 4 reprogramming factors and p53-DD or GFP at a 1:2 ratio. To assess the reprogramming efficiency, cells were trypsinized 3 days after retroviral infection and 10^4 cells were plated onto 6-cm tissue culture dishes on top of irradiated human foreskin fibroblasts with hES cell medium.
The number of Nanog-positive colonies was calculated after immunostaining at d12-14. The total number of Nanog-positive colonies was divided by the number of infected cells. Error numbers indicate s.d. The term “s.d.” refers in the customary sense to standard deviation. The term “s.e.” refers in the customary sense to standard error. Student's t-tests were performed for statistical analysis. p=0.007 (p53-shRNA vs mock, n=4 in each), p=0.0006 (p53−/− vs WT, n=3 in each), p=0.009 (p21-shRNA vs mock, n=4 in each), p=0.0005 (Arf-shRNA vs mock, n=3 in each), p=0.028 (Arf/Ink4a-shRNA vs mock, n=3 in each), p=0.010 (Ctl(solvent) vs Nutlin-3(10 μM), n=3 in each), p=0.045 (3SA/3SA vs WT, n=3 in each), p=0.022 (Bcl-2 vs mock, n=4 in each), and p=0.012 (c-Myc versus mock, n=4 in each).

[2] = test system: human primary keratinocytes; experiment: Reprogramming of human primary keratinocytes (AP-positive hES-like colonies); type: cell-based
Text: FIG. 5: Downregulation of p53 activity increases reprogramming efficiency of human somatic cells. (FIG. 5a) Human embryonic fibroblasts were infected with retroviruses encoding Oct4/Sox2/Klf4 (3-F) or Oct4/Sox2/Klf4/c-Myc (4-F) factors in combination with lentiviruses expressing control- or p53-shRNA. Emerging colonies of iPS cells were visualized by immunostaining with anti-Nanog antibody using an ABC method. […] (FIG. 5b) Human primary keratinocytes were co-infected with 4-F and retroviruses expressing GFP or p53-DD. 5×10^4 infected cells were plated on 10-cm dishes and stained for AP activity after 2 weeks. […] Actin was used as a loading control. (FIG. 5c) The bars represent the average number of iPS-like colonies obtained from 10^4 keratinocytes reprogrammed with 3-F or 4-F and retroviruses encoding GFP or p53-DD, in the absence or presence of the p53 agonist Nutlin3a (n=3). iPS-like colonies were scored as having hES-like morphology and positive AP staining. Due to the numerous colonies generated in 4-F p53-DD keratinocytes, quantification was done using 10^4 cells. […]

Arf = Arf level after shRNA in MEFs (Western blot); type: cell-based, mouse; settings: lentiviral shRNA, day 4
Text: FIG. 2: Modulation of p53 activity alters reprogramming efficiency. (FIG. 2a) Fold change in the number of 3-F induced Nanog-positive colonies by Arf shRNA compared to control shRNA (n=3). Protein levels of Arf, Ink4a and α-Tubulin (loading control) on day 4 after infection are shown. (FIG. 2b) Fold change in the number of 3-F induced Nanog-positive colonies by Arf/Ink4a shRNA compared to control shRNA (n=3). Protein levels of Arf, Ink4a and α-Tubulin (loading control) on day 4 after infection are shown. (FIG. 2c) MEFs isolated from wild type (+/+), Mdmx-3SA heterozygous (3SA/+) and homozygous (3SA/3SA) mice were exposed to 5Gy of gamma-irradiation for 4 hours. p21 mRNA levels were analyzed by QPCR. Results were normalized to untreated WT samples for fold induction. (FIG. 2d) 3-F induced Nanog-positive colonies in wild type (+/+) and homozygous (3SA/3SA) mice (n=3).
Cells were washed once in PBS and lysed in 2×SDS-PAGE sample buffer without 2-mercaptoethanol and glycerol. Lysates were briefly sonicated and cleared by centrifugation. The protein concentration was determined by a BCA Protein Assay Kit (Thermo Scientific). Lysates were then mixed with 2-mercaptoethanol, BPB and glycerol, and boiled. Equal amounts of proteins were subjected to SDS-PAGE. […] Quantitative PCR was performed using SYBR® GREEN PCR Master Mix (Applied Biosystems).

p21 = p21 expression after shRNA in MEFs; type: cell-based, mouse; settings: lentiviral shRNA
Method: FIG. 1: Increased generation of iPS cells by blocking p53 and p21. (FIG. 1a) Mouse embryonic fibroblasts (MEFs) were infected by retroviruses encoding 3 transcription factors (Oct4/Sox2/Klf4), 2 factors (Oct4/Sox2), Klf4, c-Myc or GFP. Four days after infection, the protein levels of p53, Arf, and p21 were analyzed by Western Blotting. α-tubulin was used as a loading control. (FIG. 1b) Mouse embryonic fibroblasts (MEFs) were infected by retroviruses encoding three transcription factors (Oct4/Sox2/Klf4) in combination with mock, control shRNA (GFP) and p53 shRNA (#1 and #2). Emerging colonies of iPS cells were visualized by immunostaining with anti-Nanog antibody using an Avidin Biotin Complex (ABC) method. (FIG. 1c) The fold change in the number of Nanog-positive colonies compared to mock (n=4). For all figures in this study, error bars indicate s.d. (FIG. 1d) Effect of Nutlin 3a on the number of Nanog-positive colonies by 3 factors in combination with mock, p53, and p21 shRNA. Cells were treated by Nutlin 3a (0, 3, 10 μM) starting from day 4. […]
Cells were washed once in PBS and lysed in 2×SDS-PAGE sample buffer without 2-mercaptoethanol and glycerol. […] The protein concentration was determined by a BCA Protein Assay Kit (Thermo Scientific). […] Quantitative PCR was performed using SYBR® GREEN PCR Master Mix (Applied Biosystems).

[3] = test system: human embryonic fibroblasts (HEFs, IMR90); experiment: Reprogramming of human embryonic fibroblasts (Nanog- or Tra1-81-positive colonies); type: cell-based
Text: as §1, with “.” for “VSV-G viruses were produced in HEK293T cells.”
The number of Nanog- or Tral-81-positive colonies was calculated after immunostaining at dl 8-27. No colonies were observed from mock +4-F or 3-F cells in all trials. The total number of colonies was divided by the number of infected cells. Error numbers indicate s.d (n=4).

[4] = 3F (Oct4/Sox2/Klf4), d12-14, error = s.d.

COc1ccc(C2=N[C@@H](c3ccc(Cl)cc3)[C@@H](c3ccc(Cl)cc3)N2C(=O)N2CCNC(=O)C2)c(OC(C)C)c1 [Nutlin3a]
Effect on iPS cell formation ([1]; 3-F MEFs with p53 reduced by most effective shRNA, 0, 3, 10 μM from day 4): dose-dependent decrease
Effect on reprogramming ([1]; p53(+/+) MEFs): dramatically reduced reprogramming
Effect on reprogramming ([1]; p53-null (−/−) MEFs): did not have any effects
Direction and grade of change in reprogramming efficiency (arrows) ([1]; 3F, Nutlin-3 10 μM vs solvent): ↓↓
Reprogramming efficiency (Nanog-positive colonies / infected cells) ([1]; 3F, Nutlin-3 10 μM vs solvent, treated from day 4, error = s.d.): 0.007 + 0.008% vs 0.114 + 0.054%
Effect on reprogramming ([2]; 3-F or 4-F p53-DD expressing keratinocytes): inability of Nutlin3a to reduce reprogramming
Effect on reprogramming efficiency ([2]; human keratinocytes, 3-F or 4-F): markedly reduced the reprogramming efficiency

Arf shRNA: shRNA sequence CACCGGAATCCTGGACCAG, SEQ ID NO: 5
Fold increase in reprogramming / Nanog-positive colony formation vs control [1]: approximately 2 fold
Reprogramming efficiency (Nanog-positive colonies / infected cells) [1, 4]: 0.163 ± 0.013% vs 0.085 + 0.083%
Direction and grade of change in reprogramming efficiency (arrows) ([1]; 3F, vs control): ↑
Reduction of Arf levels (Arf): 2-4 fold

Arf/Ink4a shRNA: shRNA sequence AATGGCTGGATTGTTTAAA, SEQ ID NO: 6
Reprogramming efficiency (Nanog-positive colonies / infected cells) [1, 4]: 0.366 ± 0.144% vs 0.114 + 0.054%
Direction and grade of change in reprogramming efficiency (arrows) ([1]; 3F, vs control): ↑↑

p21 shRNA: shRNA sequence TTAGGACTCAACCGTAATA, SEQ ID NO: 4
Fold increase in reprogramming / Nanog-positive colony formation vs control [1]: approximately 3 fold
Reprogramming efficiency (Nanog-positive colonies / infected cells) [1, 4]: 0.359 ± 0.144% vs 0.114 + 0.054%
Direction and grade of change in reprogramming efficiency (arrows) ([1]; 3F, vs control): ↑↑↑
Reduction of p21 expression (p21): 3-4 fold

p53shRNA: lentiviral shRNA against human p53, sequence GACTCCAGTGGTAATCTAC, SEQ ID NO: 7 (lentiviral vector)
Actual number of Nanog-positive colonies ([3]; 3-F, Trial 1): 10 colonies/3 × 10^4 cells (p53shRNA)
Actual number of Nanog-positive colonies ([3]; 3-F, Trial 2): 2 colonies/1 × 10^4 cells (p53shRNA)
Reprogramming efficiency of HEFs ([3]; 3-F, average of 2 independent experiments): 0.027% *
Actual number of Nanog-positive colonies ([3]; 4-F, Trial 1): 86 colonies/2 × 10^4 cells (p53shRNA)
Actual number of Nanog-positive colonies ([3]; 4-F, Trial 2): 13 colonies/2 × 10^4 cells (p53shRNA)
Actual number of Nanog-positive colonies ([3]; 4-F, Trial 3): 19 colonies/2 × 10^4 cells (p53shRNA)
Actual number of Nanog-positive colonies ([3]; 4-F, Trial 4): 4 colonies/2 × 10^4 cells (p53shRNA)
Reprogramming efficiency of HEFs ([3]; 4-F, ± s.d. (n=4)): 0.153 ± 0.188%
